Data taken from PubChem BioAssay (NCI).
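1) Cells in 96-well plates. 2) Compound, 48 h, 5 concentrations. 3) Linear interpolation between surrounding doses. 4) Unreached endpoint = highest concentration. Definition used: TGI = concentration required for complete inhibition of growth.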

Columns and labels:
Test in all cases: NCI-60 cell line screen, 48 h
RPMI-8226 leukemia = test system: RPMI-8226 leukemia
XF 498 CNS = test system: XF 498 CNS
DMS 114 small cell lung = test system: DMS 114 small cell lung
SNB-78 CNS = test system: SNB-78 CNS
NCI-H226 lung = test system: NCI-H226 lung
SR leukemia = test system: SR leukemia
MALME-3M melanoma = test system: MALME-3M melanoma
LOX IMVI melanoma = test system: LOX IMVI melanoma
KM12 colon = test system: KM12 colon
IGROV1 ovarian = test system: IGROV1 ovarian
SF-295 CNS = test system: SF-295 CNS
HT29 colon = test system: HT29 colon
HCT-15 colon = test system: HCT-15 colon
NCI-H23 lung = test system: NCI-H23 lung
M14 melanoma = test system: M14 melanoma
DLD-1 colon = test system: DLD-1 colon
M19-MEL melanoma = test system: M19-MEL melanoma
UO-31 renal = test system: UO-31 renal
LXFL 529 NSCLC = test system: LXFL 529 NSCLC
SNB-19 CNS = test system: SNB-19 CNS
OVCAR-3 ovarian = test system: OVCAR-3 ovarian
TK-10 renal = test system: TK-10 renal
SW-620 colon = test system: SW-620 colon
K-562 leukemia = test system: K-562 leukemia
UACC-257 melanoma = test system: UACC-257 melanoma
COLO 205 colon = test system: COLO 205 colon
OVCAR-4 ovarian = test system: OVCAR-4 ovarian
SK-MEL-28 melanoma = test system: SK-MEL-28 melanoma
CCRF-CEM leukemia = test system: CCRF-CEM leukemia
OVCAR-5 ovarian = test system: OVCAR-5 ovarian
NCI-H522 lung = test system: NCI-H522 lung
SK-MEL-5 melanoma = test system: SK-MEL-5 melanoma
EKVX NSCLC = test system: EKVX NSCLC
A549 NSCLC = test system: A549 NSCLC
HL-60(TB) leukemia = test system: HL-60(TB) leukemia
HOP-62 NSCLC = test system: HOP-62 NSCLC
SF-539 CNS = test system: SF-539 CNS
UACC-62 melanoma = test system: UACC-62 melanoma
OVCAR-8 ovarian = test system: OVCAR-8 ovarian
SN12C renal = test system: SN12C renal
SF-268 CNS = test system: SF-268 CNS
HCC-2998 colon = test system: HCC-2998 colon
SK-OV-3 ovarian = test system: SK-OV-3 ovarian
SNB-75 CNS = test system: SNB-75 CNS
DMS 273 small cell lung = test system: DMS 273 small cell lung
HOP-18 NSCLC = test system: HOP-18 NSCLC
HCT-116 colon = test system: HCT-116 colon
ACHN renal = test system: ACHN renal
KM20L2 colon = test system: KM20L2 colon
U251 CNS = test system: U251 CNS
RXF-631 renal = test system: RXF-631 renal
NCI-H460 lung = test system: NCI-H460 lung
786-0 renal = test system: 786-0 renal
MOLT-4 leukemia = test system: MOLT-4 leukemia
RXF 393 renal = test system: RXF 393 renal
SK-MEL-2 melanoma = test system: SK-MEL-2 melanoma
CAKI-1 renal = test system: CAKI-1 renal
HOP-92 NSCLC = test system: HOP-92 NSCLC

Measured: TGI

OC12c3ccccc3C1CCCCCCCCCC21OCCCO1 (centres undefined)
not listed: ACHN renal | KM20L2 colon | U251 CNS | RXF-631 renal | NCI-H460 lung | 786-0 renal | MOLT-4 leukemia | RXF 393 renal | SK-MEL-2 melanoma | CAKI-1 renal | HOP-92 NSCLC
> 100 µM: all other assays above

O=NN(CCCl)C(=O)NCc1ccc[n+]([O-])c1
not listed: UO-31 renal | SNB-19 CNS | NCI-H522 lung | SNB-75 CNS | DMS 273 small cell lung | HOP-18 NSCLC
> 100 µM: all other assays above
